This note sets out measurements from ChEMBL document CHEMBL5728971, “Small molecule inhibitors of lactate dehydrogenase and methods of use thereof” (2022).

This test is described as follows: Biochemical Assay: Test compounds were placed in a Greiner Bio-One (Monroe, N.C.) 1536-well black solid bottom assay plate. 200 millimolar (mM) Tris HCl, pH 7.4, 100 micromolar (μM) EDTA and 0.01% TWEEN-20™, final concentration, was used as the assay buffer. The LDHA reagent was 2 nanomolar (nM) Human LDHA (Meridian Life Science, Inc., Memphis, Tenn.), final concentration, in assay buffer.
By IC50 is commonly meant the midpoint of a concentration-inhibition curve. Read a low IC50 as higher potency. For the molecule `CCOC(=O)c1csc(-n2nc(-c3cccc(-c4ccccc4)c3)c(Cc3ccc(S(N)(=O)=O)cc3)c2CC2CC2)n1`, the IC50 result was “in the range around 29000 nM”.

Molecule `NS(=O)(=O)c1ccc(Cc2c(-c3ccc(F)c(C#CC4CCCC4)c3)nn(-c3nc(C(=O)O)cs3)c2CC2CC2)cc1` had an IC50 of less than 100 nM.

The molecule `COc1cccc(-c2cc(-c3nn(-c4nc(C(=O)O)cs4)c(CC4CC4)c3Cc3ccc(S(N)(=O)=O)cc3)ccc2F)c1` yielded an IC50 of less than 100 nM.

For `CCOC(=O)c1csc(-n2nc(-c3cccc(-c4ccc(C)cc4)c3)c(Cc3ccc(S(N)(=O)=O)cc3F)c2CC2CC2)n1`, the half-maximal inhibitory concentration (IC50) was more than 57000 nM.

`CCOC(=O)c1csc(-n2nc(CC3CC3)c(Cc3ccc(S(N)(=O)=O)c(F)c3)c2-c2ccc(F)c(-c3cccc(OC)c3)c2)n1`: the IC50 was more than 57000 nM.

Consider `NS(=O)(=O)c1ccc(Cc2c(-c3ccc(F)c(C4=COCCC4)c3)nn(-c3nc(C(=O)O)cs3)c2CC2CC2)cc1F`, for which the IC50 is less than 100 nM.

Molecule `CN1CCC(c2cc(-c3nn(-c4nc(C(=O)O)cs4)c(CC4CC4)c3Cc3ccc(S(N)(=O)=O)c(F)c3)ccc2F)CC1` registered an IC50 of less than 100 nM.

Molecule `Cc1noc(C)c1-c1cc(-c2nn(-c3nc(C(=O)O)cs3)c(CC3CC3)c2Cc2ccc(S(N)(=O)=O)c(F)c2)ccc1F` yielded a half-maximal inhibitory concentration (IC50) of less than 100 nM.

`Cc1ccc(-c2cc(-c3nn(-c4nc(C(=O)O)cs4)c(CC4CC4)c3Cc3ccc(S(N)(=O)=O)c(F)c3)ccc2F)s1` came in with an IC50 of less than 100 nM.

Molecule `NS(=O)(=O)c1ccc(Cc2c(-c3ccc(F)c(C#CC4CCNCC4)c3)nn(-c3nc(C(=O)O)cs3)c2CC2CC2)cc1F` yielded an IC50 of less than 100 nM.

The molecule `Cc1ccc(C#Cc2cccc(-c3nn(-c4nc(C(=O)O)cs4)c(CC4CC4)c3Cc3ccc(S(N)(=O)=O)c(F)c3)c2)s1` came in with an IC50 of less than 100 nM.

The molecule `Cc1csc(-c2cc(-c3nn(-c4nc(C(=O)O)cs4)c(CC4CC4)c3Cc3ccc(S(N)(=O)=O)cc3F)ccc2F)c1` came in with an IC50 of less than 100 nM.

Consider `NS(=O)(=O)c1ccc(Cc2c(CC3CC3)nn(-c3nc(C(=O)O)cs3)c2-c2ccc(F)c(-c3cccc(F)c3)c2)cc1F`, for which the IC50 entry is “in the range around 29000 nM”.

As to `NS(=O)(=O)c1ccc(Cc2c(-c3cccc(-c4ccccc4)c3)nn(-c3nc(C(=O)O)cs3)c2CC2CC2)cc1F`, the IC50 is less than 100 nM.

Molecule `NS(=O)(=O)c1ccc(Cc2c(-c3cccc(S(F)(F)(F)(F)F)c3)nn(-c3nc(C(=O)O)cs3)c2CC2CC2)cc1F` yielded an IC50 of less than 100 nM.

For `CCOC(=O)c1csc(-n2nc(-c3ccc(F)c(C#CC4CCCC4)c3)c(Cc3ccc(S(N)(=O)=O)c(F)c3)c2CC2CC2)n1`, the IC50 is more than 57000 nM.

The molecule `CCOC(=O)c1csc(-n2nc(-c3ccc(F)c(C#CC4CCCC4)c3)c(Cc3cccc(S(N)(=O)=O)c3)c2CC2CC2)n1` displayed an IC50 of more than 57000 nM.

Turning to `Cc1csc(-c2cc(-c3nn(-c4nc(C(=O)O)cs4)c(CC4CC4)c3Cc3ccc(S(N)(=O)=O)c(F)c3)ccc2F)c1`, the IC50 is less than 100 nM.

Take `NS(=O)(=O)c1ccc(Cc2c(CC3CC3)nn(-c3nc(C(=O)O)cs3)c2-c2ccc(F)c(-c3ccc(F)cc3)c2)c(F)c1`: the concentration for half-maximal inhibition (IC50) result was “in the range around 29000 nM”.

As for `CCOC(=O)c1csc(-n2nc(-c3ccc(F)c(-c4ccc(C)cc4)c3)c(Cc3ccc(S(N)(=O)=O)c(F)c3)c2C2CC2)n1`, the IC50 result is “in the range around 29000 nM”.

With `NS(=O)(=O)c1ccc(Cc2c(Cc3ccccc3)nn(-c3nc(C(=O)O)cs3)c2-c2ccccc2)cc1`, the IC50 entry was “in the range around 29000 nM”.

On to `NS(=O)(=O)c1ccc(Cc2c(-c3cccc(-c4cccc(F)c4)c3)nn(-c3nc(C(=O)O)cs3)c2C2CC2)cc1F`, for which the IC50 is less than 100 nM.

In turn, `NS(=O)(=O)c1ccc(Cc2c(-c3cccc(-c4cccc(F)c4)c3)nn(-c3nc(C(=O)O)cs3)c2CC2CC2)cc1` had a 50% inhibitory concentration (IC50) of less than 100 nM.

For the molecule `NS(=O)(=O)c1ccc(Cc2c(-c3ccc(F)c(C4CCC4)c3)nn(-c3nc(C(=O)O)cs3)c2CC2CC2)cc1F`, the IC50 was less than 100 nM.

`CCOC(=O)c1csc(-n2nc(-c3ccc(F)c(C#Cc4ccc(C)s4)c3)c(Cc3ccc(S(N)(=O)=O)c(F)c3)c2CC2CC2)n1` came in with an IC50 of more than 57000 nM.

On to `CCOC(=O)c1csc(-n2nc(-c3ccc(F)c(-c4cccc(OC)c4)c3)c(Cc3ccc(S(N)(=O)=O)cc3F)c2CC2CC2)n1`, for which the half-maximal inhibitory concentration (IC50) was more than 57000 nM.

Regarding `CCOC(=O)c1csc(-n2nc(-c3ccc(F)c(-c4cccc(OC)c4)c3)c(Cc3ccc(S(N)(=O)=O)c(F)c3)c2C2CC2)n1`, the IC50 is more than 57000 nM.

For the molecule `NS(=O)(=O)c1ccc(Cc2c(-c3cccc(OC4CCCC4)c3)nn(-c3nc(C(=O)O)cs3)c2CC2CC2)c(F)c1`, the 50% inhibitory concentration (IC50) is less than 100 nM.

For the molecule `COCC#Cc1cc(-c2nn(-c3nc(C(=O)O)cs3)c(CC3CC3)c2Cc2ccc(S(N)(=O)=O)c(F)c2)ccc1F`, the IC50 was less than 100 nM.

On to `CCOC(=O)c1csc(-n2nc(-c3ccc(F)c(-c4ccc(F)cc4)c3)c(Cc3ccc(S(N)(=O)=O)c(F)c3)c2C2CC2)n1`, for which the IC50 entry is “in the range around 29000 nM”.

`NS(=O)(=O)c1ccc(Cc2c(-c3cccc(C4CCCC4)c3)nn(-c3nc(C(=O)O)cs3)c2CC2CC2)cc1` showed an IC50 of less than 100 nM.

For `NS(=O)(=O)c1ccc(Cc2c(-c3cccc(OC4CCCC4)c3)nn(-c3nc(C(=O)O)cs3)c2CC2CC2)cc1`, the IC50 is less than 100 nM.

Take `NS(=O)(=O)c1ccc(Cc2c(C3CCCC3)nn(-c3nc(C(=O)O)cs3)c2-c2ccccc2)cc1`: the IC50 result was “in the range around 29000 nM”.

`CNS(=O)(=O)c1ccc(Cc2c(-c3cccc(-c4ccccc4)c3)nn(-c3nc(C(=O)O)cs3)c2O)cc1` yielded a half-inhibitory concentration (IC50) of more than 57000 nM.

Regarding `NS(=O)(=O)c1ccc(Cc2c(-c3ccc(F)c(-c4ccccc4)c3)nn(-c3nc(C(=O)O)cs3)c2CC2CC2)cc1F`, the half-maximal inhibitory concentration (IC50) was less than 100 nM.

`NS(=O)(=O)c1ccc(Cc2c(-c3ccc(F)c(C#CC4(F)COC4)c3)nn(-c3nc(C(=O)O)cs3)c2CC2CC2)cc1F` gave an IC50 of less than 100 nM.

Consider `NS(=O)(=O)c1ccc(Cc2c(-c3ccc(F)c(C#CC4CCOC4)c3)nn(-c3nc(C(=O)O)cs3)c2CC2CC2)cc1F` (stereo unspecified), for which the IC50 was less than 100 nM.

`NS(=O)(=O)c1ccc(Cc2c(-c3ccc(F)c(-c4cccc(F)c4)c3)nn(-c3nc(C(=O)O)cs3)c2C2CC2)cc1F` had an IC50 of less than 100 nM.

Take `CCOC(=O)c1csc(-n2nc(-c3ccccc3)c(Cc3ccc(S(N)(=O)=O)cc3)c2C2CC2)n1`: the IC50 was more than 57000 nM.

In the case of `C=C(C)c1cc(-c2nn(-c3nc(C(=O)O)cs3)c(CC3CC3)c2Cc2ccc(S(N)(=O)=O)c(F)c2)ccc1F`, the half-inhibitory concentration (IC50) was less than 100 nM.

Consider `CC(C)c1cc(-c2nn(-c3nc(C(=O)O)cs3)c(CC3CC3)c2Cc2ccc(S(N)(=O)=O)c(F)c2)ccc1F`, for which the half-maximal inhibitory concentration (IC50) was less than 100 nM.

In turn, `NS(=O)(=O)c1ccc(Cc2c(-c3ccc(F)c(C#CC4(F)CCCC4)c3)nn(-c3nc(C(=O)O)cs3)c2CC2CC2)cc1F` registered a half-maximal inhibitory concentration (IC50) of less than 100 nM.

As for `CCOC(=O)c1csc(-n2nc(-c3ccc(F)c(C#CC4CCCC4)c3)c(Cc3ccc(S(N)(=O)=O)c(F)c3)c2C2CC2)n1`, the IC50 result was “in the range around 29000 nM”.

On to `NS(=O)(=O)c1ccc(Cc2c(CC3CC3)nn(-c3nc(C(=O)O)cs3)c2-c2ccc(F)c(-c3ccc(F)cc3)c2)cc1`, for which the IC50 result is “in the range around 29000 nM”.

`CCOC(=O)c1csc(-n2nc(-c3ccc(F)c(-c4ccc(C)s4)c3)c(Cc3ccc(S(N)(=O)=O)c(F)c3)c2CC2CC2)n1` had an IC50 of more than 57000 nM.

Regarding `NS(=O)(=O)c1ccc(Cc2c(-c3cccc(-c4ccccc4)c3)nn(-c3nc(C(=O)O)cs3)c2CC(F)(F)F)cc1`, the IC50 result was “in the range around 550 nM”.
